The results in this text go back to PubChem BioAssay AID179 (DTP/NCI, 2004).

Calls of active or inactive are those of the source.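 Rule for the calls: active = compounds giving half or more protection of infected cells from virus-caused growth loss, again on retest; inactive = the rest.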 Where a SMILES comes first, the peptide text is derived from it. Bridges are numbered along the chain shown (N, C = ends). The star is where a group is joined. Cbz = O=C(OCc1ccccc1)*; Boc = CC(C)(C)OC(=O)*; Bn = c1ccc(C*)cc1

The test system of this test is CEM cells HIV-1 protection, formazan growth assay. Nature of the test: NCI AIDS Antiviral Assay. The following applies: for IC50: measured here: growth of uninfected CEM cells. An outline of the steps:
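Protection of CEM cells against HIV-1 measured as cell growth via soluble formazan read-out, with five concentrations tested on both infected and uninfected cells; failure to protect may reflect toxicity.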

`O=C(O)C1(C(=O)O)CC1(C(=O)O)C(=O)O`: the result was inactive.

By EC50 is commonly meant the concentration that produces a half-maximal response. A word on the IC50: it is the concentration that gives 50% inhibition. A higher IC50 goes with weaker potency. As for `CC1=CC2O[C@@H]3C[C@@H](O)[C@](C)(C2(C)CC1=O)C31CO1` (some centres not stated), the EC50 was > 200 µM and the IC50 was determined as 3.72 µM.

As to `C#CCC(O)c1ccc(OC)c(OCc2ccccc2)c1` (configuration not stated), the EC50 is > 200 µM and the IC50 amounted to 69.2 µM. In the case of `CCN(CC)CCSc1c(C(C)=O)c(=O)n(-c2ccccc2)c(=S)n1-c1ccccc1`, the EC50 was > 200 µM and the IC50 was found to be 1.15 µM.

Take `CCOC(=O)c1nc2ccc(Cl)cc2c2c1Cc1ccccc1-2`: the EC50 was > 20 µM and the IC50 is > 20 µM. With `CC1=CCC[C@H]2[C@](C)(CC3=CC(=O)C(SCC(C)C)=CC3=O)[C@@H](C)CC[C@]12C`, the EC50 is > 200 µM and the IC50 came to 2.14 µM. The corresponding values for `O=C1CCc2cc3c(cc21)C(C(=O)O)CC3` (configuration not stated) are > 200 µM and > 200 µM.

Turning to `COC(=O)C1CC(c2ccc(Cl)cc2)=NO1` (configuration not stated), the EC50 was > 282 µM and the IC50 was > 282 µM. Take `COc1ccc(NS(=O)c2ccc(-c3ccccc3)cc2)cc1` (configuration not stated): the EC50 is > 200 µM and the IC50 was 14.8 µM. With `CC1(C)SC(CCCCCCCCCCCNC2=NCCCCCCCCCCC2)=N[C@@H]1C(=O)O`, the EC50 is > 67.6 µM and the IC50 came out at 38 µM.

`Nc1nc2c(c(=O)[nH]1)C(c1ccc(Cl)cc1)C=C(c1ccccc1)N2` (configuration not stated): the EC50 was > 200 µM and the IC50 came to 14.1 µM. As to `O=C1c2ccccc2C(=O)c2c(NCCNCCO)ccc(O)c21`, the outcome was inactive. With `CC1(C)Oc2ccc3c(=O)cc(-c4ccccc4)oc3c2C1C(=O)O` (configuration not stated), the EC50 was > 200 µM and the IC50 is > 200 µM. In the case of `COc1c2cc([N+](=O)[O-])cc1CN(C(=O)C(F)(F)F)CCOCCN(C(=O)C(F)(F)F)C2`, the EC50 is > 200 µM and the IC50 was > 200 µM. Take `O=C1CCCC2=C1CC1=C(CCCC1=O)N2c1ccccc1C(=O)O`: the EC50 was > 200 µM and the IC50 is > 200 µM. Turning to `O=C1c2ccccc2C(=O)N1C/C=N/NS(=O)(=O)c1ccc2ccccc2c1`, the EC50 was > 240 µM and the IC50 is > 240 µM. As to `O=C(OCC(OC(=O)c1ccccc1)C1CC(C2(O)CCCCC2)C(=O)O1)c1ccccc1` (configuration not stated), the EC50 is > 50.1 µM and the IC50 was > 50.1 µM. For `NS(=O)(=O)c1nn2c(Br)c(-c3ccccc3)nc2s1`, the EC50 is > 200 µM and the IC50 was 1.78 µM.

In the case of `COc1ccccc1C1=Nc2ccccc2N=C(c2ccccc2O)C1`, the EC50 was > 200 µM and the IC50 turned out to be 93.3 µM. Consider `Nn1c(Cc2ccc([N+](=O)[O-])cc2)n[nH]c1=O`, for which the EC50 is > 200 µM and the IC50 is > 200 µM. Take `CCOc1ncn(-c2ccc(NC(=S)NC34CC5CC(CC(C5)C3)C4)cc2)n1`: the EC50 is 12 µM and the IC50 is 67.6 µM.

Regarding `CC(C)(C)[Si](C)(C)OCC1OC(n2ccc(=O)[nH]c2=O)C(O[Si](C)(C)C(C)(C)C)[C@@]12N[C@H](C(N)=O)CS2` (some centres not stated), the EC50 was > 200 µM and the IC50 turned out to be 8.91 µM. `O=C(/C=C/c1ccc(O)cc1)c1cc(Cl)ccc1O`: the result was inactive.

Take `C[C@@H](O)CCC(=O)c1ccoc1`: the EC50 was > 1480 µM and the IC50 is > 1480 µM.

Take `O=C(CC1Sc2ccccc2NC1=O)Nc1cc(Cl)ccc1Cl` (configuration not stated): the EC50 was > 70.8 µM and the IC50 is > 70.8 µM.

With `COc1ccc(-c2c(C)c(C)nc(Cl)c2C#N)c(OCc2ccccc2)c1OC`, the result was inactive.

With `Cc1ccc(C(=O)O)c(CC2Cc3c(C)cccc3C2=O)c1` (configuration not stated), the EC50 was > 200 µM and the IC50 amounted to 155 µM. The corresponding values for `CC(=O)N(C)CCc1c[nH]c2ccccc12` are > 200 µM and > 200 µM. As for `CCCCCC1c2c(cc(C)[nH]c2=O)OC(O)C1CCCC` (configuration not stated), the EC50 is > 126 µM and the 50% inhibitory concentration (IC50) was > 126 µM.

For `NC1=C(O)/C(=N/NS(=O)(=O)c2ccccc2)C(c2ccc3c(c2)OCO3)O1` (configuration not stated), the EC50 is > 3.72 µM and the IC50 was > 3.72 µM. Regarding `O=C1CC(c2ccc(O)c(O)c2)c2c(cc(O)c3c2O[C@H](c2ccc(O)c(O)c2)[C@H](O)C3)O1` (some centres not stated), the EC50 was > 200 µM and the IC50 stood at 31.6 µM.

Take `CC(=O)O[C@@H]1CC[C@@]2(C)C(CC[C@H]3[C@@H]4CC[C@H]([C@H](C)CCc5nc6ccc(C)cc6[nH]5)[C@@]4(C)CC[C@@H]32)C1` (some centres not stated): the EC50 is > 200 µM and the IC50 is 16.6 µM. Regarding `CC(C)(C)c1noc2c1C(=O)c1ccccc1-2`, the EC50 was > 200 µM and the IC50 was 83.2 µM. `Cc1ccc2nc(-c3ccc(C(C)(C)C)cc3)oc(=O)c2c1`: the EC50 is > 200 µM and the IC50 was 23.4 µM. For `CC(C)(C)OC(=O)NC(Cc1ccc(OCc2ccccc2)cc1)C(=O)NC(CCCCNC(=O)OCc1ccccc1)C(=O)O` (configuration not stated) (Boc-Tyr(Bn)-Lys(Cbz)-OH; configuration not given here), in that order: > 200 µM and 75.9 µM. Regarding `C/C=C1/CN2CC[C@]34C=C(CO)C1CC23Nc1ccccc14` (some centres not stated), the EC50 was > 123 µM and the IC50 is > 123 µM.

As for `C[C@@]12[Se]c3ccccc3[C@]1(C)[Se]c1ccccc12`, the result was inactive. Turning to `COc1ccc2c(c1)OCC(O)(c1ccccc1)C2O` (configuration not stated), the EC50 was > 200 µM and the IC50 is > 200 µM. For the compound `Cn1ncnc1CCc1ccccc1`, the EC50 was > 32.4 µM and the IC50 was > 32.4 µM. As for `COc1ccc2c(c1)C1OCCNC1CC2` (configuration not stated), the EC50 is > 200 µM and the IC50 was > 200 µM. As to `O=C1c2ccccc2C(=O)C1(Cl)C(Cl)c1ccc([N+](=O)[O-])cc1` (configuration not stated), the EC50 was > 200 µM and the IC50 amounted to 12 µM. As to `CN=CN(C)c1c2ccccc2nc2ccccc12`, the EC50 is > 200 µM and the IC50 was > 200 µM. Turning to `CC1(C)C2CCC1(C)C(O)(c1ccccc1)C2=O` (configuration not stated), the EC50 is > 91.2 µM and the IC50 is > 91.2 µM. Turning to `C=C1c2cc3c(cc2CC12Cc1cc4c(cc1C2=O)CCC4)CCC3` (configuration not stated), the EC50 is > 200 µM and the IC50 is > 200 µM. Take `N#Cc1c(OCCF)c2ccccc2n2c1nc1ccccc12`: the EC50 was > 100 µM and the IC50 is > 100 µM.

As for `O=S1(=O)C(c2ccccc2)C(N2CCCCC2)C1C1CC2c3ccccc3C1c1ccccc12` (configuration not stated), the EC50 is > 200 µM and the half-inhibitory concentration (IC50) stood at 8.32 µM. `c1ccc(CNc2ccc3[nH]c4cnccc4c3c2)cc1`: the EC50 was > 251 µM and the IC50 was 36.3 µM. As for `N#CC(Nc1ccccc1)c1ccc(C(C#N)Nc2ccccc2)cc1` (configuration not stated), the EC50 was > 200 µM and the IC50 was 9.55 µM. Consider `Cc1ccc(C(CCO)CCO)nc1`, for which the EC50 is > 200 µM and the IC50 was > 200 µM. On to `COC1(OC)C2(Cl)C3=CCCC=C3C1(Cl)C(Cl)=C2Cl`, for which the outcome was inactive. Take `[C-]#[O+].[C-]#[O+].[C-]#[O+].[C-]#[O+].[Mo].c1ccc(P(CCP(CCP(c2ccccc2)c2ccccc2)c2ccccc2)CCP(c2ccccc2)c2ccccc2)cc1` (configuration not stated): the EC50 was > 0.617 µM and the IC50 was > 0.617 µM.

Consider `CC(=O)c1sc2c(c1OC(=O)c1ccc(Cl)cc1Cl)c(=O)n(-c1ccccc1)c(=S)n2-c1ccccc1`, for which the EC50 was > 200 µM and the IC50 was 0.0631 µM.

As to `CC(C)C1NC(=O)C(Cc2ccccc2)NC(=O)C2NC(=O)C(Cc3ccccc3)NC(=O)C3CCCN3C(=O)CNC(=O)C(Cc3ccccc3)NC(=O)C3CNCCCCC(C(=O)O)NC(=O)C4NC(=O)C(CC(N)=O)NC(=O)CNC(=O)C(C(O)C(=O)O)NC(=O)C(CSCC(NC(=O)C(CCC(N)=O)NC(=O)C(CCCNC(=N)N)NC(=O)C(N)CSC4C)C(=O)NC(CSC2C)C(=O)N3)NC1=O` (configuration not stated), the outcome was active. As for `O=c1[nH]c(=O)n(C2CC(O)C(CO)O2)cc1Oc1ccccc1` (configuration not stated), the EC50 was > 200 µM and the IC50 is > 200 µM. For `CCCC1(NC(=O)C(F)(F)F)CC(OC)OC2COC(c3ccccc3)OC21` (configuration not stated), the EC50 was > 200 µM and the IC50 was > 200 µM. As to `COC(=O)c1cc(C(=O)OC)c2c3[nH]cnc3ncn2c1=O`, the EC50 was > 200 µM and the IC50 is > 200 µM.

For `COC(CN(C)C(=S)Nc1cccc2ccccc12)OC`, the EC50 was > 200 µM and the IC50 is 79.4 µM. As for `CN(C)c1ccc(/C(Br)=C2\OC(=O)c3ccccc32)cc1`, the EC50 was > 200 µM and the IC50 amounted to 112 µM.

With `CC(C)(C)C(C#N)(C#N)c1ccc(C(C#N)(C#N)C(C)(C)C)nn1`, the result was inactive.

With `COc1ccc(Cl)cc1C(=O)c1cc(Cl)cc(S(=O)(=O)OC)c1OC`, the EC50 is > 24.5 µM and the IC50 was > 24.5 µM. Turning to `NS(=O)(=O)c1ccc(NCc2cccc3c(=O)c4ccc(Cl)cc4oc23)cc1`, the EC50 was > 100 µM and the IC50 is 4.07 µM. For `Cc1cc(S(=O)(=O)Nc2n[nH]c(-c3ccc(Cl)cn3)n2)c(S)cc1Cl`, in that order: > 148 µM and 123 µM. Turning to `O=c1oc2nc3ccc(Cl)cc3c(=O)n2c2ccc(Cl)cc12`, the EC50 was > 200 µM and the IC50 is > 200 µM. For the compound `O=c1c(Cl)cc2nc3ccccc3sc-2c1Cl`, the EC50 was > 9.55 µM and the IC50 is 8.91 µM. Consider `COC(=O)C1CCC(=O)NCCCCC(NC(=O)C(N)CC(=O)O)C(=O)N1` (stereo not drawn) (H-Asp-Lys-Glu-OMe; lactam 2-3; configuration not given here), for which the EC50 is > 200 µM and the IC50 turned out to be 91.2 µM.

On to `N#Cc1ccc(C2Oc3ccc(Cl)cc3C=C2[N+](=O)[O-])cc1` (configuration not stated), for which the EC50 was > 200 µM and the IC50 worked out at 0.977 µM. `COc1ccc2c(c1OC)C1CCCCC1SCC2=O` (configuration not stated): the EC50 was > 200 µM and the IC50 stood at 105 µM. On to `Cc1ccc(/C(C#N)=C/c2cccc([N+](=O)[O-])c2)cc1`, for which the EC50 was > 200 µM and the IC50 is > 200 µM. In the case of `O=C(NNCC(F)(F)F)c1ccncc1`, the EC50 is > 200 µM and the IC50 was 30.2 µM. As to `COc1cccc(C2c3cc4c(cc3OC(Nc3ccccc3)C2C)OCO4)c1O` (configuration not stated), the EC50 was > 200 µM and the IC50 was 3.55 µM.
